Reference: patent publication US20190062371A1, “PEPTIDE COMPOSITIONS AND RELATED METHODS” (Allegro Pharmaceuticals, Inc., priority 2017, published 2019)

System: ischemia-induced retinal neovascularization
Assay: Mouse model of retinopathy of prematurity (ROP), ischemia-induced retinal neovascularization
Assay type: in vivo, C57Bl/6 mice
Conditions: for Activity At Dose Tested: intravitreal 20 micrograms, P17; for Mean % Reduction of Retinal Neovascularization In ROP Model: intravitreal injection of 1.0 microliters containing 20 micrograms of Test Compound at P12, neovascular area at P17 (Taurine solutions 3.0 mg/100 μL)
Description: Each test compound was prepared in sterile water for injection, containing 0.08 mg/100 μL of sodium chloride and 0.005 mg/100 μL of trisodium citrate, the concentration of the peptide was at a concentration of […] and pH=2.7 and dispensed by sterile filtration into sterile vials. The Taurine test compound was obtained from Sigma Aldrich company, which was >99% pure, and prepared the same way as mentioned previously, having a concentration of 3.0 mg/100 μL. The R-G-Cys(acid) at 2.0 mg/100 μL+Taurine at 3.0 mg/100 μL were prepared the same way as mentioned above
To screen the test compounds for activity against ischemia-induced retinal neovascularization, the well-established model of retinopathy of prematurity (ROP) in mice was used. Litters of C57Bl/6 mice were placed in 75% oxygen at postnatal day (P) 7, returned to room air at day (P) 12. The Pups were randomly assigned to treatment groups of 4 to 10 animals per group. The pups were treated as follows: Treatment eyes were treated by intravitreal injection of 1.0 microliters of solution containing 20 micrograms of Test Compound.
On post-natal day 17, 5 days after intravitreal injection, the animals were sacrificed, the retinas were flat mounted and the area of neovascularization in each retina was determined by Fluorescein-dextran image analysis.
Applicant has identified the tripeptide R-G-Cysteic(Acid) as an integrin binding motif of the oligopeptide Glycinyl-Arginyl-Glycinyl-Cysteic(Acid)-Threonyl-Proline (ALG-1001 or Luminate®, Allegro Ophthalmics, LLC). The trifluoroacetate (TFA) and acetate salts of the R-G-Cysteic(Acid) tripeptide (Test Compound Nos. 1 and 2) were tested in both the ROP Mouse Model as described above as well as in a mouse model of choroidal neovascularization induced by laser photocoagulation (“CNV Mouse Model”), as generally as described in Lambert, V., et al., Laser-Induced Choroidal Neovascarization Model to Study Age Related Macular Degeneration in Mice, Nature Protocols, 8; 2197-2211 (2013). […] In some of the experiments, an additional “Positive Control” group was included.
The following Table 1 summarizes the neovascularization inhibiting effect of each Test Compound at the dose tested. In each instance, the data was obtained using the ROP Mouse Model, except for the two table entries specifically labeled “CNV”. Only those table entries labeled “CNV” show data obtained from the CNV Mouse Model. Bar graphs showing the test results summarized in Table 1 are also provided herewith as FIGS. 1 through 27.

Compound | Activity At Dose Tested | Mean % Reduction of Retinal Neovascularization In ROP Model [%]
NCCS(=O)(=O)O [Test Compound 25, Taurine, reference compound] | Slightly Active | 33
R-D-G•TFA [Test Compound 18] | Active | 44
Cyclo-{R-G-Cys(acid)-F—N—Me—V} Acetate [Test Compound 12] | Active | 57
R-A-Cys (acid)•TFA [Test Compound 3] | Active | 60
Cyclo-{R-G-D-D-F—NMe—V}•TFA [Test Compound 13] | Active | 75
R-G-Cys(acid)-G-G-GD-G•TFA [Test Compound 7] | Active | 62
